Measurements: US11459586B2, “Methods for increasing efficiency of nuclease-mediated gene editing in stem cells” (President and Fellows of Harvard College, priority 2016, dated 2022)
Peptide text beside a SMILES is read from it. * marks the point of attachment. Cbz = O=C(OCc1ccccc1)*; CH2F = FC*

Columns and labels:
[1] = tested on: human iPSC containing a doxycycline-inducible Cas9 nuclease; experiment: Cas9 nuclease toxicity in doxycycline-inducible Cas9 hiPSC (decline of CFP+EGFP+ cells); type: cell-based; conditions: zVAD added
Excerpt: FIGS. 1A-C. Cas9 nuclease toxicity in human iPSC only occurs with sgRNAs that target the human genome. FIG. 1A. A human iPSC line containing a doxycycline-inducible Cas9 nuclease was infected with lentivirus that constitutively expresses CFP together with an sgRNA. Three days after infection, each culture was divided into several wells and treated with the indicated concentrations of doxycycline for up to 14 days. FIG. 1B. At the indicated time points, the percent of CFP^+ of live single cells was determined by flow cytometry. […] FIG. 1C. 14 days after doxycycline induction, iPSC infected with the Thy1 sgRNA were stained for expression of the Thy1 surface marker and analyzed by flow cytometry. The percent of Thy1-negative edited cells gated on the CFP^+ infected cells is shown for varying concentrations of doxycycline. Results are representative of three independent experiments.
FIGS. 2A-B. Nuclease-mediated toxicity in human iPSC can be rescued by overexpression of dominant negative p53 or anti-apoptotic Bcl-2 family members. FIG. 2A. […] At the indicated time points, the percent of CFP EGFP^+ iPSC was determined by flow cytometry. […]
FIG. 13. […] At the indicated time points, the percent of CFP^+EGFP^+ iPSC was determined by flow cytometry. […]

human iPSC = type: cell-based
Description: FIGS. 10A-F. Effect of Caspase and p38 MAPK inhibitors on survival and gene targeting of human iPSC. FIG. 10A and FIG. 10B. Mouse Thy1 gene targeting scheme. Human iPSC were nucleofected with the mThy1 targeting vector, Cas9 nuclease, and Thy1 sgRNA expressing plasmid or pUC19 empty vector. Nucleofected cells were evenly divided and plated onto plain media (mTeSR1+10 μM Y-27632 ROCK inhibitor), or media supplemented with the indicated chemical inhibitor. For specific caspase inhibitors, the principal caspase they target is noted in parentheses. […] FIG. 10C. Two days after nucleofection, viable cells were counted. Error bars indicate s.e.m. of technical duplicates. Lines mark the count levels for nucleofected cells in plain media with or without sgRNA. FIG. 10D. Five days after transfection, cells were analyzed by flow cytometry for mThy1 and hThy1 expression. The percent of mThy1^+hThy1^− (bottom of each bar) and mThy1^+hThy1^+ (top of each bar) cells of live single cells is indicated. Lines mark the levels for cells in plain media. […] FIG. 10E. FACS plots of human iPSC transfected with the mThy1 targeting vector, Cas9 nuclease, and Thy1 Left and Right sgRNAs. Cells were subsequently cultured for 5 days in plain media±50 μM zVAD and ±10 μM SB203580. FIG. 10F. Human iPSC cultures were single cell FACS sorted into 96-well tissue culture plates containing a MEF feeder layer and hES media supplemented with SMC4 inhibitors±50 μM zVAD for eight days. Ten days after sorting, the number of surviving iPSC colonies was counted (from 190 cells sorted). PGP1 hiPSC lines created using retroviral vectors or non-integrating methods were both tested.
Pluripotency of iPSC cultures was verified by flow cytometry staining using anti-human Tra-1/60 PE (TRA-1-60, BD) and anti-human Oct3/4 eFluor 660 (EM92, eBioscience) with the fixation buffer sold under the trademark BD CYTOFIX™ and permeabilization buffer sold under the trademark PHOSFLOW™ Perm/Wash buffers. Human g-band karyotype analysis was done by Cell Line Genetics. Viable cell counts were measured with the cell analyzer sold under the trademark MUSE® Count & Viability Assay kit (EMD Millipore). Anti-human HLA-A2 APC (BB7.2) and anti-human HLA-BC PE (B1.23.2) were purchased from eBioscience. Human iPSC cultures were treated with 50 ng/ml recombinant interferon gamma (eBioscience) for 2 days prior to HLA staining.
Plasmids were purified using the plasmid DNA purification kit sold under the trademark Qiagen ENDOFREE® Plasmid Maxi kit and nucleofected into iPSC cells using the Lonza 4D-Nucleofector X unit (Buffer P3, Program CB-150). For each 20 μl nucleofection reaction, 0.2-0.5×106 iPSC were transfected with up to 4 μg of plasmid DNA. Post-nucleofection, iPSC were plated onto solubilized basement membrane matrix secreted by Engelbreth-Holm-Swarm (EHS) mouse sarcoma cells sold under the trademark […]®-coated wells containing feeder-free cell culture medium sold under the trademark MTESR1™ media with 10 μM Y-27632 plus other chemical inhibitors when noted. Later experiments included 50 μM zVAD-fmk (Bachem) for 1 day and 10 μM SB203580 (Biovision) for 4-5 days post transfection (see FIGS. 5, 6, 11, and 12). For FIG. 6 (ssODN transfection), 200 ng/ml recombinant B 18R (eBioscience), was also added to the culture for 5 days post transfection.
The following inhibitors were added to the hiPSC culture at the concentrations and time periods indicated in the Examples below. • 1. p53 or Bax inhibitors: cyclic pifithrin α (StemCell Technologies); pifithrin (Tocris); peptide V5, peptide control, iMAC1 and iMAC2 (EMD Millipore); N-acetyl cysteine and 4-hydroxy TEMPO (TEMPOL) (Sigma). • 2.

CC(NC(=O)C(NC(=O)OCc1ccccc1)C(C)C)C(=O)NC(CC(=O)O)C(=O)CF (stereo not drawn) [zVAD] (Cbz-Val-Ala-Asp-CH2F; configuration not given here)
doxycycline-induced Cas9 nuclease toxicity [1]: did not affect | anoikis rescue (human iPSC; lower concentration, 25 μM): did not show as much anoikis rescue | rescue of hiPSC from cell death (anoikis) after nucleofection (human iPSC; viable cells two days after nucleofection, sgRNA plasmid or pUC19 control): rescued cells transfected with an sgRNA, and also those transfected with the pUC19 control
